Results from patent US20150210641A1, “NOVEL CYTOCHROME P450 INHIBITORS AND THEIR METHOD OF USE” (CORTENDO AB (PUBL), priority 2014, published 2015).

Assays:
Type in all cases: cell-based
recombinant CYP-17 = target: T1, recombinant CYP-17 (Homo sapiens, UniProt P05093); experiment: Cyp17 assay: 3H-acetic acid release from [21-3H] 17α-hydroxyl-Pregnenolone in AD293 cells; details: AD293 cells stably over-expressing recombinant CYP-17; eight concentrations 10 μM to 4.5 nM
T1 construct: expressed in transfected cells
T1 sequence (P05093 1-508): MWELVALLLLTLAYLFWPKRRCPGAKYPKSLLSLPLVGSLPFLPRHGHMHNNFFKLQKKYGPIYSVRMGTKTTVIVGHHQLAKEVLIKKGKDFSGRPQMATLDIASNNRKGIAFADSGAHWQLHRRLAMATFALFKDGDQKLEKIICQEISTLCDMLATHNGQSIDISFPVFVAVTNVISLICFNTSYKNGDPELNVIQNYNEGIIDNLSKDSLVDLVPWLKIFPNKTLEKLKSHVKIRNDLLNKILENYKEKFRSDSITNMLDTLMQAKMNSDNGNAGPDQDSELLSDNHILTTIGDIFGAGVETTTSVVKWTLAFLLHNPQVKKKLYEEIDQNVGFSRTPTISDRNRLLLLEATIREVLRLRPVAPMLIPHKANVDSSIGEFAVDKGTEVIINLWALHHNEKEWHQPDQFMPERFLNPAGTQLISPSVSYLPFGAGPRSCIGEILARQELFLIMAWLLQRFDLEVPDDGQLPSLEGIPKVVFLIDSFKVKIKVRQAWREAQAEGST
Method: Cyp17 assay protocol: AD293 cells that stably over-express recombinant CYP-17 were seeded in 96 well plates coated with poly D-lysine (15,000 cell per well) and incubated at 37° C. for 24 hours in Dulbecco's Modified Eagle Medium (DMEM) with Fetal Bovine Serum (FBS) that is stripped of hormones by charcoal treatment. The media is then removed, the cells are washed once with Phosphate buffer saline solution, and 50 μL Dulbecco's Modified Eagle Medium (DMEM) with Fetal Bovine Serum (FBS) that is stripped of hormones by charcoal treatment is added. Compounds of the disclosure are then added to the wells in eight concentration spanning 10 μM to 4.5 nM, and the plates are incubated for an additional 60 minutes at 37° C. [21-^3H] 17α-hydroxyl-Pregnenolone is then added (50 nCi per well, 31.25 nM) and the plates are incubated for an additional 4 hours at 37° C. The media is then collected, 200 μL of chloroform is added, and the mixture is shaken for 1 hour. The aqueous layer is then separated and analyzed for the presence of ^3H-acetic acid using a Perkin Elmer Topcount NXT to determine IC50s of the compounds of the disclosure.

recombinant CYP-11 = target: T2, recombinant CYP-11 (Homo sapiens, UniProt P15538); experiment: Cyp11 assay: cortisol formation from 11-deoxycortisol in AD293 cells, LC/MS; details: AD293 cells stably over-expressing recombinant CYP-11; eight concentrations 10 μM to 4.5 nM
T2 construct: expressed in transfected cells
T2 sequence (P15538 25-503): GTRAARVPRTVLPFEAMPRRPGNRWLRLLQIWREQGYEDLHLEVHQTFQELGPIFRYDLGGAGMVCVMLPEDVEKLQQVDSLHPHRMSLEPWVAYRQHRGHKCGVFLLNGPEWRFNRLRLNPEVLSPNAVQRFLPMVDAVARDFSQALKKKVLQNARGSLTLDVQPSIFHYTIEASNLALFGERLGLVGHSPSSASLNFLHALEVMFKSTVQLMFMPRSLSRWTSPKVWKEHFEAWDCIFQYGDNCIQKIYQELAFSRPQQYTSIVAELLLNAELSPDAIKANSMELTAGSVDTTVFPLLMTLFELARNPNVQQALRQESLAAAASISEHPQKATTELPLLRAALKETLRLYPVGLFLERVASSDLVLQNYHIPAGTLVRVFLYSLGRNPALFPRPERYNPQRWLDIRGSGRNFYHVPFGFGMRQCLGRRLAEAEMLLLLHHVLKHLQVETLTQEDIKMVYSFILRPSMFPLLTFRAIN
Method: Cyp11 assay protocol: AD293 cells that stably over-express recombinant CYP-11 were seeded in 96 well plates coated with poly D-lysine (15,000 cell per well) and incubated at 37° C. for 24 hours in Dulbecco's Modified Eagle Medium (DMEM) with Fetal Bovine Serum (FBS) that is stripped of hormones by charcoal treatment. The media is then removed, the cells are washed once with Phosphate buffer saline solution, and 50 μL Dulbecco's Modified Eagle Medium (DMEM) with Fetal Bovine Serum (FBS) that is stripped of hormones by charcoal treatment is added. Compounds of the disclosure are then added to the wells in eight concentration spanning 10 μM to 4.5 nM, and the plates are incubated for an additional 60 minutes at 37° C. 11-deoxycortisol is then added ([…]) and the plates are incubated for an additional 12 hours at 37° C. After incubation, 50 uL of the supernatant (medium) is transferred into a fresh plate and 150 uL of an acetonitrile solution containing 200 ng/ml of Telmisartan is added. The sample is mixed and then placed in a centrifuge at 2000 rpm for 5 minutes. 100 uL of the supernatant is transferred into a fresh 96 well deep well plate, 100 uL of 1:1 methanol: water was added, the solution was mixed and then analyzed by LC/MS for the presence of cortisol using an Agilent 1200 RRLC/ABSCIEX API4000 LC-MS or Shimadzu Prominance/ABSCIEX API4000 LC-MS to determine IC50s of the compounds of the disclosure.

recombinant CYP-21 = target: T3, recombinant CYP-21 (Homo sapiens, UniProt P08686); experiment: Cyp21 assay: 11-deoxycortisol formation from 17-OH Progesterone in AD293 cells, LC/MS; details: AD293 cells stably over-expressing recombinant CYP-21; eight concentrations 10 μM to 4.5 nM
T3 construct: expressed in transfected cells
T3 sequence (P08686 1-495): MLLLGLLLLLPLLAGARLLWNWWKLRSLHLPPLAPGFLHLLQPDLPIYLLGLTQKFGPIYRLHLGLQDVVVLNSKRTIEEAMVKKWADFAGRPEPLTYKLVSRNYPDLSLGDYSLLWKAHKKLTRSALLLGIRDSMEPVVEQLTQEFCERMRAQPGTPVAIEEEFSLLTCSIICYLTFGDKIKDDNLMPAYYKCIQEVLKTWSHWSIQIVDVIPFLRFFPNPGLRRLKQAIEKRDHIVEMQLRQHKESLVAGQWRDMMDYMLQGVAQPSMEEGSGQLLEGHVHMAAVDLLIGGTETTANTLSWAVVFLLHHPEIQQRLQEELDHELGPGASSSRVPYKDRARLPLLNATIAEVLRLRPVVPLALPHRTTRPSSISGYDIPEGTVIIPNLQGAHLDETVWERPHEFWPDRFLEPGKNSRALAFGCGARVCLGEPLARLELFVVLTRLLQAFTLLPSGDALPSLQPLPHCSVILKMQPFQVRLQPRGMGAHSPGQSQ
Method: Cyp21 assay protocol: AD293 cells that stably over-express recombinant CYP-21 were seeded in 96 well plates coated with poly D-lysine (10,000 cell per well) and incubated at 37° C. for 24 hours in Dulbecco's Modified Eagle Medium (DMEM) with Fetal Bovine Serum (FBS) that is stripped of hormones by charcoal treatment. The media is then removed, the cells are washed once with Phosphate buffer saline solution, and 50 μL Dulbecco's Modified Eagle Medium (DMEM) with Fetal Bovine Serum (FBS) that is stripped of hormones by charcoal treatment is added. Compounds of the disclosure are then added to the wells in eight concentration spanning 10 μM to 4.5 nM, and the plates are incubated for an additional 60 minutes at 37° C. 17-OH Progesterone is then added ([…]) and the plates are incubated for an additional 45 minutes at 37° C. After incubation, 50 uL of the supernatant (medium) is transferred into a fresh plate and 150 uL of an acetonitrile solution containing 200 ng/ml of Telmisartan is added. The sample is mixed and then placed in a centrifuge at 2000 rpm for 5 minutes.

Row | Structure (SMILES) | IC50 (recombinant CYP-17) | IC50 (recombinant CYP-11) | IC50 (recombinant CYP-21)
1 | COc1cc(F)ccc1-c1ccc(C(F)c2ccncc2)cc1 (stereo not drawn) [Entry 1, 4-[Fluoro-(4′-fluoro-2′-methoxy-biphenyl-4-yl)-methyl]-pyridine] | 220 nM | ≥ 10000 nM | 1500 nM
2 | COc1cc(F)ccc1-c1ccc(C(F)(F)c2ccncc2)cc1 [Entry 2, 4-[Difluoro-(4′-fluoro-2′-methoxy-biphenyl-4-yl)-methyl]-pyridine] | 2200 nM | ≥ 10000 nM | 236 nM
3 | COc1cc(F)ccc1-c1ccc(C2(c3ccncc3)OCCO2)cc1 [Entry 3, 4-[2-(4′-Fluoro-2′-methoxy-biphenyl-4-yl)-[1,3]dioxolan-2-yl]-pyridine] |  | 2000 nM | 820 nM
4 | COc1cc(F)ccc1-c1ccc(C2(c3ccncc3)OCCO2)cc1 [Entry 4, 4-[2-(4′-Fluoro-2′-methoxy-biphenyl-4-yl)-[1,3]dioxolan-2-yl]-pyridine] |  | ≥ 10000 nM | 320 nM
5 | COc1cc(F)ccc1-c1ccc(C2(c3ccncc3)OCC(C)CO2)cc1 (stereo not drawn) [Entry 5, 4-[2-(4′-Fluoro-2′-methoxy-biphenyl-4-yl)-5-methyl-[1,3]dioxan-2-yl]-pyridine] | 126 nM | ≥ 10000 nM | 520 nM
6 | COc1cc(F)ccc1-c1ccc(C2(c3ccncc3)OCC(C)(C)CO2)cc1 [Entry 6, 4-[2-(4′-Fluoro-2′-methoxy-biphenyl-4-yl)-5,5-dimethyl-[1,3]dioxan-2-yl]-pyridine] | 600 nM | ≥ 10000 nM | 2200 nM
7 | COc1ccc(-c2ccc(C(F)c3ccncc3)cc2)cc1OC (stereo not drawn) [Entry 7] | 14 nM | ≥ 10000 nM | 940 nM
8 | COc1ccc(-c2ccc(C(F)(F)c3ccncc3)cc2)cc1OC [Entry 8] | 34 nM | ≥ 10000 nM | 408 nM
9 | COc1ccc(-c2ccc(C(c3ccncc3)N3CCCCC3)cc2)cc1OC (stereo not drawn) [Entry 9] | 14 nM |  | 1200 nM
10 | COc1ccc(-c2ccc(C(c3ccncc3)N3CCOCC3)cc2)cc1OC (stereo not drawn) [Entry 10, 4-((3′,4′-Dimethoxy-[1,1′-biphenyl]-4-yl)(pyridin-4-yl)methyl)morpholine] | 10 nM |  | 1800 nM
11 | COc1ccc(-c2ccc(C(c3ccncc3)N3CCCC3)cc2)cc1OC (stereo not drawn) [Entry 11, 4-((3′4′-dimethoxy-[1,1′-biphenyl]-4-yl)(pyrrolidin-1-yl)methyl)pyridine] | 10 nM |  | 2500 nM
12 | COc1ccc(-c2ccc(C(c3ccncc3)N3CCN(C)CC3)cc2)cc1OC (stereo not drawn) [Entry 12, 1-((3′4′-dimethoxy-[1,1′-biphenyl]-4-yl)(pyridin-4-yl)methyl)-4-methylpiperazine] | 77 nM |  | ≥ 10000 nM
13 | COc1ccc(-c2ccc(C(OC(C)C)c3ccncc3)cc2)cc1OC (stereo not drawn) [Entry 13, 4-(isopropoxy(3′,4′-dimethoxy-[1,1′-biphenyl]-4-yl)methyl)pyridine] | 10 nM |  | 210 nM
14 | CCOC(c1ccncc1)c1ccc(-c2ccc(OC)c(OC)c2)cc1 (stereo not drawn) [Entry 14, 4-(ethoxy(3′,4′-dimethoxy-[1,1′-biphenyl]-4-yl)methyl)pyridine] | 26 nM |  | 190 nM
15 | COc1ccc(-c2ccc(C(OC)c3ccncc3)cc2)cc1OC (stereo not drawn) [Entry 15, 4-(methoxy(3′,4′-dimethoxy-[1,1′-biphenyl]-4-yl)methyl)pyridine] | 11 nM |  | 180 nM
16 | COc1ccc(-c2ccc(C3(c4ccncc4)OCCO3)cc2)cc1OC [Entry 16, 4-[2-(3′,4′-dimethoxy-biphenyl-4-yl)-[1,3]dioxolan-2-yl]-pyridine] | 23 nM | 1400 nM | 565 nM
17 | COc1cc(F)ccc1-c1ccc(C(c2ccncc2)N2CCOCC2)cc1 (stereo not drawn) [Entry 17, 4-((4′-fluoro-2′-methoxy-[1,1′-biphenyl]-4-yl)(pyridin-4-yl)methyl)morpholine] | 28 nM | ≥ 10000 nM | ≥ 10000 nM
18 | COc1cc(F)ccc1-c1ccc(C(c2ccncc2)N2CCCCC2)cc1 (stereo not drawn) [Entry 18, 4-((4′-fluoro-2′-methoxy-[1,1′-biphenyl]-4-yl)(piperidin-1-yl)methyl)pyridine] | 770 nM | ≥ 10000 nM | ≥ 10000 nM
19 | COc1cc(F)ccc1-c1ccc(C(c2ccncc2)N2CCCC2)cc1 (stereo not drawn) [Entry 19, 4-((4′-fluoro-2′-methoxy-[1,1′-biphenyl]-4-yl)(pyrrolidin-1-yl)methyl)pyridine] | 254 nM | ≥ 10000 nM | ≥ 10000 nM
20 | COc1cc(F)ccc1-c1ccc(C(c2ccncc2)N2CCN(C)CC2)cc1 (stereo not drawn) [Entry 20, 1-((4′-fluoro-2′-methoxy-[1,1′-biphenyl]-4-yl)(pyridin-4-yl)methyl)-4-methylpiperazine] | 107 nM | ≥ 10000 nM | ≥ 10000 nM
21 | COc1cc(F)ccc1-c1ccc(C(c2ccncc2)N2CCN(C3CCCC3)CC2)cc1 (stereo not drawn) [Entry 21, 1-cyclopentyl-4-((4′-fluoro-2′-methoxy-[1,1′-biphenyl]-4-yl)(pyridin-4-yl)methyl)piperazine] | 900 nM | ≥ 10000 nM | ≥ 10000 nM
